Data reported in US20230265056A1, “CRYSTALLINE FORMS OF BENZAMIDE COMPOUND AND PROCESS FOR PREPARING THE SAME” (CRYSTAL PHARMATECH CO., LTD., priority 2020, published 2023).
In brackets after ≈: the same amount, converted by molar mass. Values belong to the compound of their own block, whether it stands above or below them.

Experiments:
[1] = Hygroscopicity by DVS test, with XRPD before and after; format: physicochemical; conditions: for Water uptake at 25° C., 80% / Water uptake at 25° C., 90%: DVS; for Water uptake at 25° C., 80%: 80% relative humidity; for Water uptake at 25° C., 90%: 90% relative humidity
Protocol: The dynamic vapor sorption diagrams of the present disclosure were collected on Intrinsic-type and Intrinsic Plus-type dynamic vapor sorption instruments of SMS company. The process parameters of the dynamic vapor sorption test of the present disclosure were as follows:
Protection gas and its flow rate: N2, 200 mL/minute
Minimum dm/dt equilibration time: 10 minutes
Maximum Equilibration Time: 180 minutes
Relative humidity range: 0% RH-95% RH-0% RH, 50% RH-95% RH-0% RH
Relative humidity gradient: 10% (0% RH-90% RH-0% RH), 5% (90% RH-95% RH and 95% RH-90% RH).
Weigh approximately 10 mg of a form of formula (I) (i.e., Form A from WO2020234779A1), 10 mg of Form J and 10 mg of amorphous for DVS test, and then collect the obtained solid for XRPD analysis. The DVS plots of Form A, Form J and amorphous were shown in FIGS. 6, 8 and 10, and the XRPD overlay were shown in
Following is Description and definition of hygroscopicity (see appendix XIX J, guidance for hygroscopicity evaluation of Pharmacopoeia of the People's Republic of China 2010): […]

[2] = Kinetic solubility in SGF, FaSSIF, FeSSIF and pure water (HPLC); conditions: for solubility kinetic at 1 h / solubility kinetic at 4 h / solubility kinetic at 24 h: thermodynamic from solid
Protocol: (§1) Suspend Form J (from example 1), amorphous (from example 2) and Form A (from WO2020234779A1) in Simulated Gastric Fluid (SGF), Fasted-State Simulated Intestinal Fluid (FaSSIF), Fed-State Simulated Intestinal Fluid (FeSSIF) and pure water, respectively. After equilibrium for 1 hour, 8 hours and 24 hours, filter the solution for HPLC test.

[3] = Intrinsic dissolution of compressed thin tablet; format: physicochemical; conditions: pH 1.5 aqueous HCl solution
Protocol: Approximately 100 mg of each of Form J (from example 1) and Form A (from WO2020234779A1) were compressed by intrinsic dissolution mold under 10 kN pressure to obtain a thin tablet with surface area of 1.0 cm2, respectively. Dissolution experiment was performed on the tablets, and the corresponding result was summarized in Table 4, dissolution profile was shown in FIG. 16.

[4] = would covert to Form A under certain conditions; cited from earlier work
[5] = Solid-state stability (XRPD and HPLC purity); format: physicochemical; conditions: for Purity: HPLC; for Solid form: XRPD
Protocol: Weigh appropriate amount of Form J (from example 1) into a 5-mL glass vial, and then seal the vial with parafilm (pricked 5 pinholes). Place the vial under 25° C./60% RH and 40° C./75% RH for some time, and then separate several solids out for XRPD and HPLC purity test.

Crystal habit by PLM = format: physicochemical; conditions: compared with Form A
Protocol: About 10 mg of Form J (from example 1) and Form A (from WO2020234779A1) were weighed and placed onto a glass slide, respectively, the solid were dispersed with several vacuum pump oil, and then covered with a cover glass. The samples were observed using PLM.

PSD test = format: physicochemical; conditions: Isopar G (0.2% lecithin), before and after sonication for 30 s, compared with Form A
Protocol: Approximately 10-30 mg of each of Form J (from example 1) and Form A (from WO2020234779A1) were added into 5 mL Isopar G (0.2% lecithin) to form a suspension, respectively. The suspension was loaded into SDC system for data collection, which was collected before and after sonication for 30 s.

[6] = Sticking propensity (powder adhering to punch tip); format: physicochemical; conditions: 6 mm circle punches, 10 kN pressure, compared with Form A
Protocol: Approximately 30 mg of each of Form J (from example 1) and Form A (from WO2020234779A1) were compressed by 6 mm circle punches under 10 kN pressure, respectively. The loading mass (ML) and tablet mass (MT) were recorded, and mass percentage of powder adhering to punch tip (ma) was calculated by the equation of ma=(ML−MT)/ML×100%.

physchem = conditions: thermodynamic from solid
Protocol: as §1

- Water uptake at 25° C., 80% [1]: 3.37%
- Water uptake at 25° C., 90% [1]: 4.14%
- Kinetic solubility ([2]; FaSSIF, 24 hr): 11 µg/mL
- solubility kinetic at 1 h ([2]; Fasted-State Simulated Intestinal Fluid (FaSSIF), fassif, 1 hr): 10 µg/mL (≈ 19.7 µM)
- solubility kinetic at 4 h ([2]; Fasted-State Simulated Intestinal Fluid (FaSSIF), fassif, 4 hr): 11 µg/mL (≈ 21.7 µM)
- solubility kinetic at 1 h ([2]; Fed-State Simulated Intestinal Fluid (FeSSIF), fessif, 1 hr): 33 µg/mL (≈ 65 µM)
- solubility kinetic at 4 h ([2]; Fed-State Simulated Intestinal Fluid (FeSSIF), fessif, 4 hr): 34 µg/mL (≈ 67 µM)
- solubility kinetic at 24 h ([2]; Fed-State Simulated Intestinal Fluid (FeSSIF), fessif, 24 hr): 33 µg/mL (≈ 65 µM)
- Kinetic solubility ([2]; SGF, 1 hr): 1400 µg/mL
- solubility kinetic at 4 h ([2]; Simulated Gastric Fluid (SGF), simulated gastric fluid, SGF, 4 hr): 1000 µg/mL (≈ 1970 µM)
- solubility kinetic at 24 h ([2]; Simulated Gastric Fluid (SGF), simulated gastric fluid, SGF, 24 hr): 950 µg/mL (≈ 1870 µM)
- solubility kinetic at 1 h ([2]; pure water, water, H2O, 1 hr): 4.6 µg/mL (≈ 9.06 µM)
- solubility kinetic at 4 h ([2]; pure water, water, H2O, 4 hr): 4.4 µg/mL (≈ 8.67 µM)
- solubility kinetic at 24 h ([2]; pure water, water, H2O, 24 hr): 4.3 µg/mL (≈ 8.47 µM)
Structure (SMILES): C=CC(=O)N(C)CCOc1c(N)ncnc1-c1cc(F)cc(NC(=O)c2ccc(C3CC3)cc2F)c1C [Amorphous, N-(3-(6-amino-5-(2-(N-methylacrylamido)ethoxy)pyrimidin-4-yl)-5-fluoro-2-methylphenyl)-4-cyclopropyl-2-fluorobenzamide]
- Hygroscopicity ([1]; class per Pharmacopoeia of the People's Republic of China 2010): Hygroscopic (increase in mass is less than 15 percent and equal to or greater than 2 percent)

- Water uptake at 25° C., 80% [1]: 0.54%
- Water uptake at 25° C., 90% [1]: 0.68%
- Cumulative dissolution amount ([3]; 5 mins): 0.5 mg
- Cumulative dissolution amount ([3]; 10 mins): 0.9 mg
- Cumulative dissolution amount ([3]; 15 mins): 1.3 mg
- Cumulative dissolution amount ([3]; 20 mins): 1.6 mg
- Cumulative dissolution amount ([3]; 25 mins): 2.1 mg
- Cumulative dissolution amount ([3]; 30 mins): 2.7 mg
- Cumulative dissolution amount ([3]; 60 mins): 3.2 mg
- Cumulative dissolution amount ([3]; 75 mins): 4.3 mg
- Kinetic solubility ([2]; FaSSIF, 1 hr): 6.1 µg/mL
- Kinetic solubility ([2]; FaSSIF, 4 hr): 6.5 µg/mL
- Kinetic solubility ([2]; FaSSIF, 24 hr): 5 µg/mL
- Kinetic solubility ([2]; FeSSIF, 1 hr): 20 µg/mL
- Kinetic solubility ([2]; FeSSIF, 4 hr): 22 µg/mL
- Kinetic solubility ([2]; FeSSIF, 24 hr): 22 µg/mL
- Kinetic solubility ([2]; H2O, 1 hr): 3.7 µg/mL
- Kinetic solubility ([2]; H2O, 4 hr): 3.9 µg/mL
- Kinetic solubility ([2]; H2O, 24 hr): 2.9 µg/mL
- Kinetic solubility ([2]; SGF, 1 hr): 690 µg/mL
- Kinetic solubility ([2]; SGF, 4 hr): 710 µg/mL
- Kinetic solubility ([2]; SGF, 24 hr): 700 µg/mL
Structure (SMILES): C=CC(=O)N(C)CCOc1c(N)ncnc1-c1cc(F)cc(NC(=O)c2ccc(C3CC3)cc2F)c1C [Form A, N-(3-(6-amino-5-(2-(N-methylacrylamido)ethoxy)pyrimidin-4-yl)-5-fluoro-2-methylphenyl)-4-cyclopropyl-2-fluorobenzamide, reference compound]

Structure (SMILES): C=CC(=O)N(C)CCOc1c(N)ncnc1-c1cc(F)cc(NC(=O)c2ccc(C3CC3)cc2F)c1C [Form B, N-(3-(6-amino-5-(2-(N-methylacrylamido)ethoxy)pyrimidin-4-yl)-5-fluoro-2-methylphenyl)-4-cyclopropyl-2-fluorobenzamide]
- Thermodynamic stability [4]: less thermodynamically stable

- Water uptake at 25° C., 80% [1]: 0.53%
- Water uptake at 25° C., 90% [1]: 0.60%
- Cumulative dissolution amount ([3]; 5 mins): 1.1 mg
- Cumulative dissolution amount ([3]; 10 mins): 2.5 mg
- Cumulative dissolution amount ([3]; 15 mins): 2.9 mg
- Cumulative dissolution amount ([3]; 20 mins): 3.3 mg
- Cumulative dissolution amount ([3]; 25 mins): 3.9 mg
- Cumulative dissolution amount ([3]; 30 mins): 4.7 mg
- Cumulative dissolution amount ([3]; 60 mins): 5.6 mg
- Cumulative dissolution amount ([3]; 75 mins): 7.2 mg
- Purity/initial Purity ([5]; 25° C./60% RH, 1 week): 99.6%
- Purity ([5]; 25° C./60% RH, 1 week): 99.09 area %
- Solid form ([5]; 25° C./60% RH, 1 week): Form J
- Purity/initial Purity ([5]; 25° C./60% RH, 2 weeks): 99.0%
- Purity ([5]; 25° C./60% RH, 2 weeks): 98.48 area %
- Solid form ([5]; 25° C./60% RH, 2 weeks): Form J
- Purity/initial Purity ([5]; 25° C./60% RH, 4 weeks): 99.2%
- Purity ([5]; 25° C./60% RH, 4 weeks): 98.71 area %
- Solid form ([5]; 25° C./60% RH, 4 weeks): Form J
- Purity/initial Purity ([5]; 25° C./60% RH, 8 weeks): 98.7%
- Purity ([5]; 25° C./60% RH, 8 weeks): 97.94 area %
- Solid form ([5]; 25° C./60% RH, 8 weeks): Form J
- Purity/initial Purity ([5]; 40° C./75% RH, 1 week): 99.6%
- Purity ([5]; 40° C./75% RH, 1 week): 99.05 area %
- Solid form ([5]; 40° C./75% RH, 1 week): Form J
- Purity/initial Purity ([5]; 40° C./75% RH, 2 weeks): 98.9%
- Purity ([5]; 40° C./75% RH, 2 weeks): 98.39 area %
- Solid form ([5]; 40° C./75% RH, 2 weeks): Form J
- Purity/initial Purity ([5]; 40° C./75% RH, 4 weeks): 99.0%
- Purity ([5]; 40° C./75% RH, 4 weeks): 98.42 area %
- Solid form ([5]; 40° C./75% RH, 4 weeks): Form J
- Purity/initial Purity ([5]; 40° C./75% RH, 8 weeks): 98.0%
- Purity ([5]; 40° C./75% RH, 8 weeks): 97.32 area %
- Solid form ([5]; 40° C./75% RH, 8 weeks): Form J
- Crystal habit (Crystal habit by PLM): better crystal habit than Form A
- Sticking propensity [6]: lower sticking propensity than Form A
- solubility kinetic at 1 h (physchem; fassif): 24 µg/mL (≈ 47.3 µM)
- solubility kinetic at 4 h (physchem; fassif): 14 µg/mL (≈ 27.6 µM)
- solubility kinetic at 24 h (physchem; fassif): 16 µg/mL (≈ 31.5 µM)
- solubility kinetic at 1 h (physchem; fessif): 130 µg/mL (≈ 256 µM)
- solubility kinetic at 4 h (physchem; fessif): 53 µg/mL (≈ 104 µM)
- solubility kinetic at 24 h (physchem; fessif): 57 µg/mL (≈ 112 µM)
- solubility kinetic at 1 h (physchem; simulated gastric fluid): 2400 µg/mL (≈ 4730 µM)
- solubility kinetic at 4 h (physchem; simulated gastric fluid): 2700 µg/mL (≈ 5320 µM)
- solubility kinetic at 24 h (physchem; simulated gastric fluid): 2600 µg/mL (≈ 5120 µM)
- solubility kinetic at 1 h (physchem; water): 12 µg/mL (≈ 23.6 µM)
- solubility kinetic at 4 h (physchem; water): 15 µg/mL (≈ 29.6 µM)
- solubility kinetic at 24 h (physchem; water): 19 µg/mL (≈ 37.4 µM)
Structure (SMILES): C=CC(=O)N(C)CCOc1c(N)ncnc1-c1cc(F)cc(NC(=O)c2ccc(C3CC3)cc2F)c1C [Form J, N-(3-(6-amino-5-(2-(N-methylacrylamido)ethoxy)pyrimidin-4-yl)-5-fluoro-2-methylphenyl)-4-cyclopropyl-2-fluorobenzamide]
- Dissolution compared with Form A [3]: larger total dissolution amount and higher cumulative dissolution rate than Form A
- Form change and HPLC purity decrease on storage ([5]; 25° C./60% RH and 40° C./75% RH for 8 weeks): no obvious form change and HPLC purity decrease
- Particle size distribution (PSD test): more uniform particle size distribution than Form A
